Test system: MCF7
Test: Antiproliferative activity against human MCF7 cells after 72 hrs by MTT assay
Format: functional, cell-based
Details: MCF7, 72 h

| Structure (SMILES) | IC50 [nM] |
| --- | --- |
| CC(=O)O[C@H]1C[C@H]2OC[C@@]2(OC(C)=O)[C@H]2[C@H](OC(=O)c3ccccc3)[C@]3(O)C[C@H](OC(=O)[C@H](O)[C@@H](NC(=O)c4ccccc4)c4ccccc4)C(C)=C([C@@H](O)C(=O)[C@]12C)C3(C)C | 10 |
| CC(=O)O[C@@]12CO[C@@H]1C[C@H](O)[C@@]1(C)C(=O)C(=O)C3=C(C)[C@@H](OC(=O)[C@H](O)[C@@H](NC(=O)c4ccccc4)c4ccccc4)C[C@@](O)([C@@H](OC(=O)c4ccccc4)[C@H]21)C3(C)C | 64 |
| C/C=C(\C)C(=O)N[C@@H](c1ccccc1)[C@@H](O)C(=O)O[C@H]1C[C@@]2(O)[C@@H](OC(=O)c3ccccc3)[C@@H]3[C@]4(OC(C)=O)CO[C@@H]4C[C@H](O)[C@@]3(C)C(=O)[C@H](OC(C)=O)C(=C1C)C2(C)C [CEPHALOMANNINE] | 6 |
| C/C=C(\C)C(=O)N[C@@H](c1ccccc1)[C@@H](O)C(=O)O[C@H]1C[C@@]2(O)[C@@H](OC(=O)c3ccccc3)[C@@H]3[C@]4(OC(C)=O)CO[C@@H]4C[C@@H](O)[C@@]3(C)C(=O)C(=O)C(=C1C)C2(C)C | 80 |

Reference: ChEMBL document CHEMBL1150812, “New taxane analogues from the needles of Taxus canadensis” (J Nat Prod, 2001)
